Results: patent publication US20150031760A1, “PHARMACEUTICAL COMPOSITION FOR PREVENTING OR TREATING NERVOUS SYSTEM DISORDERS COMPRISING SULFURETIN OR PHARMACEUTICALLY ACCEPTABLE SALT THEREOF” (Research and Business Foundation SUNGKYUNKWAN UNIVERSITY, priority 2010, published 2015)

System: BACE1
Experiment: Western blot, BACE1 level
Type: cell-based, human
Conditions: Swedish APP mutant SH-SY5Y cells; sulfuretin 2.5, 5, 10 and 20 μM for 24 h; dose-dependent (p<0.001)
Experimental: For the experiments shown in FIGS. 11 to 13, SH-SY5Y and stable swedish APP mutant SH-SY5Y cells were grown in DMEM supplemented with 10% heat-inactivated FBS and 0.1% penicillin/streptomycin at 37° C. in a humidified atmosphere of 5% CO2 and 95% air. Cells were fed every three days and sub-cultured once they reached 80-90% confluency in […] cell culture dishes. Amyloid beta25-35 was prepared as a 20 mM stock immediately before use and diluted in PBS to the indicated final concentration. Prior to use, amyloid beta25-35 was dissolved in sterilized distilled water and was aggregated at 37° C. for five days. The test compounds were dissolved in DMSO and the stock solutions were added directly to the culture media to a final concentration of 0.1% (v/v) DMSO.
SH-SY5Y and stable swedish APP mutant SH-SY5Y cells (1×10^6 cells/well in 6-well plates) were incubated at 37° C. with or without 20 μM amyloid beta 25-35 for 6 or 24 h, with or without sulfuretin pretreatment, and then washed and harvested with ice-cold PBS and centrifuged at 400×g for 3 minutes. […] The protein concentration was determined using a protein assay kit (Thermo Scientific). […] Protein bands were quantified by densitometric analysis using Image Gauge 4.0 software (Fujifilm, Stamford, Conn., USA). […]

In the case of `O=C1/C(=C/c2ccc(O)c(O)c2)Oc2cc(O)ccc21` [sulfuretin], the BACE1 level is reported as “significantly inhibited”.
